In paper PMC2700827 (Journal of the American Chemical Society, 2008):
Like-named read-outs stand apart in the source and are kept apart here.

What was measured:
[1] = phenol pKa given in Figure 5 legend, source not given
[2] = hydrogen bond acceptor; cited from earlier work

SMILES	pKa [1]	pKa [2]
Oc1c(F)cc(F)cc1F [2,4,6-F3-phenol]	7.2	–
O=[N+]([O-])c1cc[n+]([O-])cc1 [4-nitropyridine-N-oxide]	–	−1.7
